# Source: US20070191493A1, “Use of n-alkanols as activators of the cftr channel” (priority 2003, published 2007)
# Read-outs that look alike come from different tables or passages of the source.
# Tests used:
# [1] = target: T1, CFTR channel (Homo sapiens, UniProt P13569); assay: 125I radioactive iodide efflux in CHO-CFTR(+) cells; format: cell-based; parameters: expressed in transfected cells; host or cells: CHO (Chinese hamster ovary) cells, CHO-CFTR(+)
# Procedure: The cells are cultured in 24-well plates with a dilution to 1/10 after passage. […] The operation is repeated every 30 s for 2 to 6 min. […] All the samples are counted in a gamma counter (Kontron). The precipitated proteins are solubilized in 0.1N NaOH and quantified using a calorimetric test.
# The tracer contained in the cell layer at the beginning of the efflux is calculated as the sum of the samples and of the extracts counted. The efflux curves are constructed by expressing the percentage of the content remaining in the cell layer (I %) with respect to time. The stimulated or nonstimulated efflux rate constants (k, min^−1) are determined by smoothing the efflux curves to a monoexponential function I %=100*exp(−kt) using a linear regression of the neperian logarithm of the data, k is used to calculate the iodide released into the medium with respect to time. The hypothesis is made that, in the presence of a stimulator, the efflux is the sum of two iodide effluxes occurring in parallel: a basal efflux and a stimulated efflux characterized, respectively, by the constants kb and ks. The total net efflux is then described by the equation It^%=100*(1−exp(−ktt)) where kt is the sum of kb and ks. Finally, ks calculated as kt−kb is used to establish a dose-response relationship for antagonists. The data is expressed as means ±SD, and the t-test is used to determine the significances. The concentration-response curves for agonists or for antagonists are smooth using the hyperbolic equation Y=Ymax*X/(EC5C+X), where Y is the response. Y begins at the basal level and progresses to the plateau (Ymax), X is the concentration and the half-effect values (EC are calculated using GraphPad Prism v3.0 (GraphPad software)).
# [2] = tested on: intracellular cAMP level; assay: total intracellular cAMP assay in CHO-CFTR(+) cells; format: cell-based, Chinese hamster; conditions: 5 min, FSK 1 or 5 μM, alcohols 1 mM
# Procedure: The CHO cells are cultured for four days in a 24-well culture plate. On the fourth day of culture, each well is rinsed twice with 500 μl of medium B, and 500 μl of this buffer containing the molecule to be tested are added to each well. After incubation at 37° C. for 5 min, the reaction is stopped by adding a cell lysis buffer. The cell lysis is verified with Trypan blue. The amount of cAMP contained in the cells is determined using the Enzyme Immuno Assay kit (Amersham Biotechnology). The cAMP level is expressed in pmol/well ±SD.
# [3] = target: T1, CFTR channel; assay: whole-cell patch-clamp in CHO-CFTR(+) cells; format: cell-based; parameters: expressed in transfected cells; host or cells: CHO (Chinese hamster ovary) cells, CHO-CFTR(+)
# Excerpt: The patch-clamp technique consists in applying a glass pipette or a glass microelectrode to the surface of the cell. By applying slight touch, it is possible to cause the membrane to adhere to the glass. A small piece of membrane (patch) is thus isolated at the end of the pipette. This is the principle of patch-clamp (O. P. Hamill et al., Pflügers Arch., 1981, 391, 85-100; R. Penner, A Practical Guide to Patch Clamping, 1995, In Single Channel Recording, 2nd edition (Eds. B. Sakmann et al.) Plenum Press, New York, 3-30). To do this, the patch-clamp pipette must have a tip of the order of 1 μm in diameter and a resistance of the order of 1-5 MΩ. The resistance of a pipette or of a microelectrode makes it possible to assess the fineness of the tip: the greater the resistance, the finer the tip or the more the electrode is blocked. […] Interactions between the membrane and the glass will form, aided by a slight suction or negative pressure in the pipette. The quality of this interaction (or sealing) is also assessed by measuring the resistance between the glass and the membrane. To measure overall currents in the whole cell configuration, a sealing resistance of 1 GΩ is sufficient.
# More specifically, culture dishes (cell support) are placed in an experimentation cell (volume 1 ml) on the platform of an inverted microscope (Nikon) equipped with phase-contrast lighting. The whole-cell configuration is used for recording the cell currents (Hamill et al., 1981). The experiments are carried out at ambient temperature (20-22° C.). The currents are amplified with an Axopatch 200B amplifier (Axon Instrument Ltd) having a 2-5 kHz low-pass filter (Bessel 6-pole filter), and recorded on the hard disk of a PC after digitization at 10-25 kHz. The pipettes are produced from glass tubes 1 mm in diameter (Clark Electromedical Instrument) in four steps with a horizontal drawing device (Bruwn Flaming 97, CA).
# The pipettes, filled with an intracellular solution containing, in mM: 60 KCl; 80 NMDG ([…]); 10 HEPES; 5 EGTA; 1 CaCl2; 4 MgATP; 0.2 Na3GTP; pH 7.4, titrated with KOH), having a resistance of 5 MΩ. The potentials are expressed as the difference between the potential of the patch electrode and that of the bath. In the whole-cell configuration, they represent the membrane potential of the cell. The junction potentials that form between the recording electrode and the extracellular medium are eliminated before the contact of the electrode with the cell. […] The current-voltage relationships in the stationary state are determined using slow voltage ramps (20 mV/.s) under an imposed voltage condition. […]
# [4] = tested on: CHO-CFTR(-) cells; assay: 125I iodide efflux in CHO-CFTR(-) control cells that do not express CFTR; format: cell-based, Chinese hamster; conditions: octan-1-ol 0.1 to 5 mM, FSK 5 μM, A23187 2 μM
# T1 sequence (P13569 whole entry): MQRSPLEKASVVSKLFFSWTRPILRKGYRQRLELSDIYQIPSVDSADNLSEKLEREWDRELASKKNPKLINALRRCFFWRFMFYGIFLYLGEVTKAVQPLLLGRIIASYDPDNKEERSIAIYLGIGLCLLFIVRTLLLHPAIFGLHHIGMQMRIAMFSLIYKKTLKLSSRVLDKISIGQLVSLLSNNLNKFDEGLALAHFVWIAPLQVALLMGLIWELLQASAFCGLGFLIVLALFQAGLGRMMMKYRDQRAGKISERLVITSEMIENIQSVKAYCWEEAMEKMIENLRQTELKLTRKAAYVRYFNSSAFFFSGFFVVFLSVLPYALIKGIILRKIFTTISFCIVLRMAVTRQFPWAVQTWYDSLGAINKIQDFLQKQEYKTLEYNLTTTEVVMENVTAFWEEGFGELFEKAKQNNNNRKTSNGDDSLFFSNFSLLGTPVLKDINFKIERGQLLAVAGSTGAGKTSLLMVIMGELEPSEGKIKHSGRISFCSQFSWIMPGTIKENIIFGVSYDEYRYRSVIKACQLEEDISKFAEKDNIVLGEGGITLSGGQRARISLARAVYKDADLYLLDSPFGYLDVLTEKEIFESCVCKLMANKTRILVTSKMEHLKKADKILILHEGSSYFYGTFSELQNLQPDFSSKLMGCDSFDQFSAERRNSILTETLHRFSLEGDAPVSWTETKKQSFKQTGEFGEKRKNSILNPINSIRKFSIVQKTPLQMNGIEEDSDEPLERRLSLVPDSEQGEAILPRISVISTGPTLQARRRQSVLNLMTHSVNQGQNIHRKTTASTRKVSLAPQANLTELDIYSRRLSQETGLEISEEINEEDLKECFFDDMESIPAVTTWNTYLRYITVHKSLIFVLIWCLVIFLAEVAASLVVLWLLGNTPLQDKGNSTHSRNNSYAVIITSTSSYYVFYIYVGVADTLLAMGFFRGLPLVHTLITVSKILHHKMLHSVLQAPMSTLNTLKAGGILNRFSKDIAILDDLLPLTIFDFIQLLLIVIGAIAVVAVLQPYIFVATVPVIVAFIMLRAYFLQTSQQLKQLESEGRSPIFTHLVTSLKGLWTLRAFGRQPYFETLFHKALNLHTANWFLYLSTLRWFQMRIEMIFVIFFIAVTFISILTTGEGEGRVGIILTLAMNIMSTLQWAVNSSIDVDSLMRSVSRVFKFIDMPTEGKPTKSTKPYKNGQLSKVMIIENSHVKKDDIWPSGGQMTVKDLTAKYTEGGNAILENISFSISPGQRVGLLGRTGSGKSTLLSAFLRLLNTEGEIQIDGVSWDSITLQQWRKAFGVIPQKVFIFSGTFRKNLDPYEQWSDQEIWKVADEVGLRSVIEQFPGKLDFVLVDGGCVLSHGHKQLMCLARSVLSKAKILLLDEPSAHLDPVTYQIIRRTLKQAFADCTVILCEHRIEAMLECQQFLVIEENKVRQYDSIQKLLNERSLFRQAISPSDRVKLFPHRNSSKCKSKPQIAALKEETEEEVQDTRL
structure (smiles),measurement,setting,value
CCCCCCCCO [octan-1-ol],order of activation of CFTR by n-alkanols,"[1]; 1 mM, 125I efflux or patch-clamp",hexan-1-ol<heptan-1-ol<octan-1-ol<octan-2-ol<decan-1-ol
same,concentration at which plateau of CFTR activation is reached,[1]; CHO-CFTR(+) cells,1 mM
same,"activation of CFTR (125I efflux), in words","[1]; CHO-CFTR(+) cells, n-alkanols 1 mM, FSK 1 μM, A23187 2 μM, α-GA 10 and 100 μM",increase in activation of CFTR
same,EC50,"[1]; CHO-CFTR(+) cells, read-out: half-activation dose",500 µM
same,EC50,"[1]; EC50 of activation of CFTR (125I efflux rate constant), CHO-CFTR(+) cells, octan-1-ol 0.1 to 5 mM",~500 µM
same,effect on intracellular cAMP level,[2],"neither octan-1-ol, hexan-1-ol or ethanol modifies the basal cAMP level"
same,"activation of the CFTR channel by patch-clamp, in words","[3]; octan-1-ol alone 1 mM, without FSK",full activation
same,reversion potential of the induced current,"[3]; whole-cell, FSK- or octan-1-ol-induced current",1±0.6 mV
same,increase in membrane conductance compared with the control,"[3]; whole-cell, FSK 1 μM, octan-1-ol 1 mM",approximately 10 fold
same,effect on basal level of 125I efflux in cells not expressing CFTR,[4],do not significantly modify the basal level
